# According to ChEMBL document CHEMBL1201862, “PubChem BioAssay data set” (2004):
# Calls of active or inactive are those of the source.
# Legend:
# [1] = Luminescence Cell-Based Dose Retest to Confirm Inhibitors of Cancer Stem Cells. [Related pubchem assays (depositor defined):AID2717, AID2721]; type: functional; details: Homo sapiens
# [2] = biological target: T1, Histone-lysine N-methyltransferase NSD2 (Homo sapiens, UniProt O96028); type: biochemical
# T1 sequence (O96028 whole entry): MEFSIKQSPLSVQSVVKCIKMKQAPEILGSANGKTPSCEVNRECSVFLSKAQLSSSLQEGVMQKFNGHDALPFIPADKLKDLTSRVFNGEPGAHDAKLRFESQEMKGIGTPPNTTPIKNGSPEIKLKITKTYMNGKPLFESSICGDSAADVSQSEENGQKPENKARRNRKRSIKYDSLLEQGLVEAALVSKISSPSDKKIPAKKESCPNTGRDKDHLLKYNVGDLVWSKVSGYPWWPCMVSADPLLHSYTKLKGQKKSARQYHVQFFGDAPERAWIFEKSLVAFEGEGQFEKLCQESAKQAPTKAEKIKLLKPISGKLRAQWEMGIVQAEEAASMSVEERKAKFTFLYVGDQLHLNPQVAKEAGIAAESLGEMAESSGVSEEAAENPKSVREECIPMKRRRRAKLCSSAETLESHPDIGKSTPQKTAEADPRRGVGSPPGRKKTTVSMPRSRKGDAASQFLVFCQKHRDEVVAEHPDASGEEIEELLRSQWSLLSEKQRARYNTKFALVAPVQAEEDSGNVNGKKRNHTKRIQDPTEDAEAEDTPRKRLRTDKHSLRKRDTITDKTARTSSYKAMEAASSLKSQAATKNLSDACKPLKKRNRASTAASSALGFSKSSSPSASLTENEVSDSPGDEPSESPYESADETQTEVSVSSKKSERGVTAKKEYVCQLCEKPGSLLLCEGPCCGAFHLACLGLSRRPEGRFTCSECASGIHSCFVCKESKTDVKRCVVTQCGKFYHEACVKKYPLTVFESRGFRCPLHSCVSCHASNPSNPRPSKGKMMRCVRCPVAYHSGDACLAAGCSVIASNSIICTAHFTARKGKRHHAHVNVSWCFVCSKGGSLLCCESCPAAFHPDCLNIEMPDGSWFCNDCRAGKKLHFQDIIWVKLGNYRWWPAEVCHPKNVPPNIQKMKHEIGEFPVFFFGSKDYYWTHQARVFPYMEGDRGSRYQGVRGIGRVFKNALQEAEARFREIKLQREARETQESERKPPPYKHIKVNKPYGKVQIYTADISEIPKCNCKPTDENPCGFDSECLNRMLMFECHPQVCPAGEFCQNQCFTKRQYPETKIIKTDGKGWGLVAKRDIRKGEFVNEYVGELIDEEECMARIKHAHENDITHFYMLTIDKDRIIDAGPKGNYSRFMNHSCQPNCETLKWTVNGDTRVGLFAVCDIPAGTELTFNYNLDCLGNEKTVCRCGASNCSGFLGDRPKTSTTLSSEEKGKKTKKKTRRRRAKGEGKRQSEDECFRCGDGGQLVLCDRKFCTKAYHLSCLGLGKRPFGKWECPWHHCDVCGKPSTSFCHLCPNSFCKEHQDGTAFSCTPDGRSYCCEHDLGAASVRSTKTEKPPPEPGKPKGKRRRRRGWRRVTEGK
# HEK293 [3] = experiment: cells; details: Homo sapiens
# HEK293 [4] = experiment: cells; details: Homo sapiens; remark: listed apart in the source
# Vero [5] = experiment: cells; type: functional, cell-based; details: Chlorocebus sabaeus
# Vero [6] = experiment: cells; type: functional; details: Chlorocebus sabaeus
# [7] = biological target: T2, High affinity choline transporter 1 (Homo sapiens, UniProt Q9GZV3); experiment: CHT inhibitors, dose response, cell-based, 5-point CRC, membrane potential dye (AID 504840); type: functional
# T2 sequence (Q9GZV3 whole entry): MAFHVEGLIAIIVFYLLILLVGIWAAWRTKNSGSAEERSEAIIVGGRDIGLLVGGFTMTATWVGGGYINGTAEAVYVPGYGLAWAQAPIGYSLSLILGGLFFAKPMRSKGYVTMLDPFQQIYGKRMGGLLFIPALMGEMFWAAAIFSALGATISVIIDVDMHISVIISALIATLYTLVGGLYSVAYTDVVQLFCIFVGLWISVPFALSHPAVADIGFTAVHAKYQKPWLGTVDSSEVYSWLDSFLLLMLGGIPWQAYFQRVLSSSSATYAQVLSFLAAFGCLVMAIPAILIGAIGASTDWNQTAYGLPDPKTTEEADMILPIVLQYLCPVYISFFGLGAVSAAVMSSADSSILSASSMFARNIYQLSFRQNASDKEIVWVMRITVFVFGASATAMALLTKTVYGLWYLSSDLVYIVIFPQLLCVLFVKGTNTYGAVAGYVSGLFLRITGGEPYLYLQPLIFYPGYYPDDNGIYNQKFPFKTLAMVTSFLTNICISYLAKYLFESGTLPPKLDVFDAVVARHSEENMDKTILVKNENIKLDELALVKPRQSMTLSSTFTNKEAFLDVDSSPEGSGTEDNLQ
# [8] = HEp-2 cell cytotoxicity, dose response, cytotoxicity control for RSV inhibitor project, HTS (AID 2410); type: functional; details: human respiratory syncytial virus
# [9] = Vero E6 cell cytotoxicity, dose response, cytotoxicity control for non-replicating M. tuberculosis project, secondary assay (AID 492998); type: functional, VeroE6; details: Vero C1008
# [10] = cytotoxicity toward NIH3T3 fibroblasts, dose response, counter-screen, cell-based, ATP luminescence, mouse fibroblasts (AID 2010); type: functional;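 note: cells exposed to compound for about 90 hours before reading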
# cells [11] = type: functional
# [12] = inhibitors of intracellular T. cruzi replication, confirmation, NIH3T3 host cells, beta-gal luminescence (AID 2044); type: functional, cell-based;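 note: intracellular parasites grown in NIH/3T3 mouse fibroblasts as host cells; luminescent beta-galactosidase reporter signal from transgenic T. cruzi replicating inside host cells; inhibitors lower the luminescence signal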
# [13] = biological target: T3, Voltage-gated N-type calcium channel alpha-1B subunit/Amyloid beta A4 precursor protein-binding family A member 1 (Homo sapiens, UniProt Q00975+Q02410); type: protein assay
# [14] = biological target: T3, Voltage-gated N-type calcium channel alpha-1B subunit/Amyloid beta A4 precursor protein-binding family A member 1; type: protein assay; remark: listed apart in the source
# Streptokinase A = biological target: T4, Streptokinase A (Streptococcus pyogenes serotype M1, UniProt P10520); experiment: S. pyogenes streptokinase expression inhibitors, potency, dose response, plasminogen activation absorbance, OD405 (AID 1914); type: functional, Streptococcus pyogenes M1 GAS;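 note: secreted streptokinase activity via plasminogen activation per viability signal from cell pellet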
# T4 sequence (P10520 whole entry): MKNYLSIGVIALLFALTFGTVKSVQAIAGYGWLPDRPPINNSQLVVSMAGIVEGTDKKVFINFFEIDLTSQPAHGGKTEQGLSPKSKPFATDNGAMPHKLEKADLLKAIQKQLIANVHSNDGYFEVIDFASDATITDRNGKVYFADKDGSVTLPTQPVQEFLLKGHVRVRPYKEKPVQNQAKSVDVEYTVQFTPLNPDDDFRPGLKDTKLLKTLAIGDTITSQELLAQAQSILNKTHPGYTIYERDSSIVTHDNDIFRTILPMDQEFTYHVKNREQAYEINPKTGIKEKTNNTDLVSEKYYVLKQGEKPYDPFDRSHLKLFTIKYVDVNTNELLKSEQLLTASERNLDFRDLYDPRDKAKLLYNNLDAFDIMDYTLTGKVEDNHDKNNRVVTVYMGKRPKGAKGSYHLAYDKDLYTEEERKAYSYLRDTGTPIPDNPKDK
# Streptococcus = experiment: Group A Streptococcus viability loss, dose response, counter-screen for streptokinase expression inhibitor project, luminescence, BacTiterGlo (AID 1915); type: functional, organism-based;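 note: potency for reduction of bacterial viability or growth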
# [15] = microbe, parasite or virus in culture; type: functional; details: Mycobacterium tuberculosis
# [16] = tested on: Streptococcus sp. 'group A'; experiment: growth inhibition of control SK(-) GAS strain, dose response, counter-screen for streptokinase expression inhibitor project, luminescence, kanamycin, BacTiterGlo, confirmation (AID 1900); type: functional, organism-based
# [17] = biological target: Voltage-dependent T-type calcium channel subunit alpha-1H (Homo sapiens, UniProt O95180); type: functional;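 note: channel activity triggered by adding a high calcium stimulation buffer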
# cells [18] = experiment: cells
# [19] = biological target: Dual specificity tyrosine-phosphorylation-regulated kinase 1A (Rattus norvegicus, UniProt Q63470); type: biochemical, Homo sapiens
# [20] = biological target: T5, Polyadenylate-binding protein 1 (Homo sapiens, UniProt P11940); experiment: PABP1 MLLE–PAM2 binding inhibitor potency, dose response, biochemical, fluorescence polarization, FITC-PAM2 peptide (AID 602259); type: functional; details: read-out: IC50_Mean
# [21] = biological target: FAD-linked sulfhydryl oxidase ALR (Homo sapiens, UniProt P55789); experiment: inhibitors of human ALR sulfhydryl oxidase, dose response, biochemical, H2O2 detection, luminescence, cherry-pick (AID 493248)
# [22] = THP-1 cell cytotoxicity, dose response, cytotoxicity control for non-replicating M. tuberculosis project (AID 489025); type: functional
# H4 = experiment: Luminescence Cell-Based Dose Response HTS to Identify Activators of 5'UTR Stem-Loop Driven Prion Protein mRNA Translation in H4 Neuroglioblastoma Cells. [Related pubchem assays: 1829 (Project Summary), 1814 (Primary HTS)]; type: functional; details: Homo sapiens
# [23] = Luminescence Cell-Based Dose Confirmation HTS to Identify Activators of 5'UTR Stem-Loop Driven Alpha-Synuclein mRNA Translation in H4 Neuroglioblastoma Cells. [Related pubchem assays: 1829 (Project Summary), 1814 (Primary HTS)]; type: functional
# [24] = cytotoxicity in HEK-293T cells, dose response, cytotoxicity control for BCR NF-kB inhibitor project, luminescence, B-cell screen hits (AID 489021); type: functional, cell-based;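 note: HEK-293T cells carrying an NF-kB luciferase reporter; cells exposed to compound for about 14 hours before viability readout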
# [25] = Luminescence Cell-Based Dose Response HTS to Identify Activators of Luciferase Translation or Activity in H4 […] Cells. [Related pubchem assays: 1829 (Project Summary), 1814 (Primary HTS)]; type: functional
# [26] = biological target: T5, Polyadenylate-binding protein 1; experiment: PABP1 MLLE–PAM2 interaction inhibitors, dose response, miRNA deadenylation inhibitor project, biochemical, fluorescence polarization, Cy5-PAM2 peptide, secondary (AID 602260); type: functional; details: read-out: IC50_Mean
# [27] = biological target: DNA dC->dU-editing enzyme APOBEC-3G (Homo sapiens, UniProt Q9HC16); experiment: Dose Response confirmation of small molecule APOBEC3G DNA Deaminase Inhibitors via a fluorescence-based single-stranded DNA deaminase assay. [Related pubchem assays (depositor defined):AID493012, AID493028]; type: functional
# Large T antigen = Large T antigen (Simian virus 40, UniProt P03070); type: functional, Betapolyomavirus macacae;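 note: Confirmatory-stage PubChem screen for compounds that inhibit SV40 T antigen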
# [28] = biological target: Heat shock protein HSP 90-alpha (Homo sapiens, UniProt P07900); type: functional, organism-based
# Beta-galactosidase = Beta-galactosidase (Escherichia coli, UniProt Q8VNN2); experiment: beta-galactosidase enzyme inhibitors and activators, dose response, artefact control for CCR6 antagonist project, biochemical, E. coli enzyme, set 3 (AID 504712); type: functional
# T3 sequence (Q00975 whole entry): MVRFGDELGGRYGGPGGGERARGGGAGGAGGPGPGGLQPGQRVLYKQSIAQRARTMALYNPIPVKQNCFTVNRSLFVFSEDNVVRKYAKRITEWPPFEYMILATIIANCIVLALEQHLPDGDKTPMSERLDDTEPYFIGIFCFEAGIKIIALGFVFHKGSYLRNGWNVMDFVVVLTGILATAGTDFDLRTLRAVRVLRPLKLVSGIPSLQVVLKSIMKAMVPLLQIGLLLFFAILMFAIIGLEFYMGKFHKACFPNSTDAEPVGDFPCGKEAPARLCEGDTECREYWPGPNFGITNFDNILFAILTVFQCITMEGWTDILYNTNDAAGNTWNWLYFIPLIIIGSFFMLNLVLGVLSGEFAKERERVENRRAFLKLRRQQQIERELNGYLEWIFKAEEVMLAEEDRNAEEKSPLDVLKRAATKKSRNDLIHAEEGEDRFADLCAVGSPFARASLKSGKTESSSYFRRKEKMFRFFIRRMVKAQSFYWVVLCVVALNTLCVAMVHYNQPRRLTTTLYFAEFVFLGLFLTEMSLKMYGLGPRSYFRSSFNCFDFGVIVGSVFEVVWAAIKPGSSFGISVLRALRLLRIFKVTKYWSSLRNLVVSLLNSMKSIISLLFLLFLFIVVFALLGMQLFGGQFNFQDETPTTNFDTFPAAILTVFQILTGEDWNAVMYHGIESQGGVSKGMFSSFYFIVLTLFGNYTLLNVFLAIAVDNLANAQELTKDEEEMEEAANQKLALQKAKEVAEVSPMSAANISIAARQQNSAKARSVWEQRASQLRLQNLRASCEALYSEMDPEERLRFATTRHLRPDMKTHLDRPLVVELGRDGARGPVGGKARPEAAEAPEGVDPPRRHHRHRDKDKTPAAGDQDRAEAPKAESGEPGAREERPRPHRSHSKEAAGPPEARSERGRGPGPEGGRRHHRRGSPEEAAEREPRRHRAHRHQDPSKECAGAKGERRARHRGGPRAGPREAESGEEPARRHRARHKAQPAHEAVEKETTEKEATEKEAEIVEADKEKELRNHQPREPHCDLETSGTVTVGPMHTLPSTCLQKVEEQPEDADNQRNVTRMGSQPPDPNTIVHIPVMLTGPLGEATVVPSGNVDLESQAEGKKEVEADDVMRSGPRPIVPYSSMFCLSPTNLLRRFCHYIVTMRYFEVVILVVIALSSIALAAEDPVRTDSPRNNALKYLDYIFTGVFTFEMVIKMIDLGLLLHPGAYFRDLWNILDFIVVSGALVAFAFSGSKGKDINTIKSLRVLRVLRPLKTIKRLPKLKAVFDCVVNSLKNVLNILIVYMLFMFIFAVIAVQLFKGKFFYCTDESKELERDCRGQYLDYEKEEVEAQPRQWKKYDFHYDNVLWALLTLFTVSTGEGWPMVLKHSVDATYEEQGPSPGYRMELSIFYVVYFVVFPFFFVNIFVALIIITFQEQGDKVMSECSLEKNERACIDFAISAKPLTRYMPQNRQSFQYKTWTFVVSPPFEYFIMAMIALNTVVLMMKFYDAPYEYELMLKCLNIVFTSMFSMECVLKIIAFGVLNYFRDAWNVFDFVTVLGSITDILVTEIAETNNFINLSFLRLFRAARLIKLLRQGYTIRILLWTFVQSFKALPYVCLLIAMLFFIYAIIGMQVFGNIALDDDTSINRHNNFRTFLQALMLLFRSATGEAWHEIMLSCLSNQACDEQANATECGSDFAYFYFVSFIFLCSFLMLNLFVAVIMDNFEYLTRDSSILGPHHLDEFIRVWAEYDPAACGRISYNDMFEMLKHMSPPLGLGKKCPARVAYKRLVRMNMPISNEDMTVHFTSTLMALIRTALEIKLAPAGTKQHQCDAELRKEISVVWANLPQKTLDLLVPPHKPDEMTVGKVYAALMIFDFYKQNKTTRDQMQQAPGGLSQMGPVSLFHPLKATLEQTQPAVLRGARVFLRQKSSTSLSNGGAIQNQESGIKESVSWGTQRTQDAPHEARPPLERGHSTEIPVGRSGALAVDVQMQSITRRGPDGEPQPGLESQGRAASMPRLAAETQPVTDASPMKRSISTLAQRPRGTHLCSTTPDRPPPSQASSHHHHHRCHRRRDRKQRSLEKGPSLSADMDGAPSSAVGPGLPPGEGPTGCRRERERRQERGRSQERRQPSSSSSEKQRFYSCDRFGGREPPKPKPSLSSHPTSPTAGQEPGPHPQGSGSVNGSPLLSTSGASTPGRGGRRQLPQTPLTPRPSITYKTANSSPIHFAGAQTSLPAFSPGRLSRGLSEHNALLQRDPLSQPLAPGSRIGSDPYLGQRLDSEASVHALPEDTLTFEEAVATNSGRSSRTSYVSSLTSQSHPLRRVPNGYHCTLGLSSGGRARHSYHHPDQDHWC
# T3 sequence (Q02410 whole entry): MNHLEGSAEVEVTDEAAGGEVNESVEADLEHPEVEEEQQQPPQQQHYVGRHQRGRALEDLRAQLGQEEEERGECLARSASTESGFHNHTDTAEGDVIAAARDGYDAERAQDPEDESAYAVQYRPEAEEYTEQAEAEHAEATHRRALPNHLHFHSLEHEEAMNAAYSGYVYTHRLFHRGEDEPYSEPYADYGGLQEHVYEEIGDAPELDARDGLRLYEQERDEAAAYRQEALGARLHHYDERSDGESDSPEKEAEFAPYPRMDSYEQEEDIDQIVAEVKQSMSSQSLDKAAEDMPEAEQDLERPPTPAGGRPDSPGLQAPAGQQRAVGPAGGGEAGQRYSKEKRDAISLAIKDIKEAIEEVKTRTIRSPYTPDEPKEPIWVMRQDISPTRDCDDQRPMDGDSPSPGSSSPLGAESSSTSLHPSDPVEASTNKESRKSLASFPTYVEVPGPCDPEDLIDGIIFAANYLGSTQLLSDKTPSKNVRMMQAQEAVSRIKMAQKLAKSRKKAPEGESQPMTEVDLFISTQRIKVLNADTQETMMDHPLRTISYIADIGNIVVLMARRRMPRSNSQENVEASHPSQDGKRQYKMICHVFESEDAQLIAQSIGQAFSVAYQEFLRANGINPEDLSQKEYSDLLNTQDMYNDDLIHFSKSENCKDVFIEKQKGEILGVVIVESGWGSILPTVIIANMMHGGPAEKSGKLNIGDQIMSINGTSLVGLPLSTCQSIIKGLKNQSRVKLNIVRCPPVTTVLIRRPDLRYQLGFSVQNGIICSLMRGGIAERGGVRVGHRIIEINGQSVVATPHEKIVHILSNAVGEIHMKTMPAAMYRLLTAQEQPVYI
# T5 sequence (P11940 whole entry): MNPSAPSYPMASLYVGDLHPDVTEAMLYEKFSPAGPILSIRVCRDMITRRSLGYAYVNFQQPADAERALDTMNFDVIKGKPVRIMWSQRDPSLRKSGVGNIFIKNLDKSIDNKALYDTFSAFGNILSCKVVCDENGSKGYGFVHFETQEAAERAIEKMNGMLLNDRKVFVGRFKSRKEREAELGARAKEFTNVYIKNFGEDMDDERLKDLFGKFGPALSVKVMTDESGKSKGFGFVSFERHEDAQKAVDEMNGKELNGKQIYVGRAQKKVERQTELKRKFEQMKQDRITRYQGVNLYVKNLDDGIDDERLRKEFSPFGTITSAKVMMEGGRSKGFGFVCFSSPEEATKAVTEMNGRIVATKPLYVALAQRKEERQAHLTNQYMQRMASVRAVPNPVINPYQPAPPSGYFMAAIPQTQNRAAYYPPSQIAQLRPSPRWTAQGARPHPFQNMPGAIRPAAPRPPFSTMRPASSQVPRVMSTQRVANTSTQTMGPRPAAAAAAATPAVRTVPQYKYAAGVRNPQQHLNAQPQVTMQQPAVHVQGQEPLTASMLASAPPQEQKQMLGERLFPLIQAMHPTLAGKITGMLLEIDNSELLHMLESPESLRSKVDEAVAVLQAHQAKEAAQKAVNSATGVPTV
# Chain of DNA dC->dU-editing enzyme APOBEC-3G (Q9HC16 whole entry): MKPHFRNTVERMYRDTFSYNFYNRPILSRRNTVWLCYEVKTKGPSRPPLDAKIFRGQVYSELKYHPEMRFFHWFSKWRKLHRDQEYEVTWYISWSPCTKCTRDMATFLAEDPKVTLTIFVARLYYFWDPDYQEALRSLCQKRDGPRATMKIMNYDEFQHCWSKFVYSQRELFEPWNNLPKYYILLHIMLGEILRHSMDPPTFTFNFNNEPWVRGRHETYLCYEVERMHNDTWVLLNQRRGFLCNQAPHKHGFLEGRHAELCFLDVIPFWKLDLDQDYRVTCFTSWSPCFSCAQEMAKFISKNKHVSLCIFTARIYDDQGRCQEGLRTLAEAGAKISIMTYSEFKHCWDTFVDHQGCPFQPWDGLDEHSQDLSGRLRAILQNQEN
# Chain of FAD-linked sulfhydryl oxidase ALR (P55789 whole entry): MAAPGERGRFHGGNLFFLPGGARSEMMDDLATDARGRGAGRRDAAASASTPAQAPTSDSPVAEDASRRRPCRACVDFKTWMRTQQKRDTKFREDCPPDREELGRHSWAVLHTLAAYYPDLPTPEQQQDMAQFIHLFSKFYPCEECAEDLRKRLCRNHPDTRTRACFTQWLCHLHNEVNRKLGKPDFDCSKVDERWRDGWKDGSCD
structure (smiles),measurement,setting,value
Cc1ccc(N2C(=O)NC(=O)/C(=C\C=C\c3ccco3)C2=O)cc1,AC50,[1],2.98 µM (active)
same,AC50,[2],> 20 µM (inactive)
same,EC50,HEK293 [3],> 59.6 µM (inactive)
same,EC50,HEK293 [4],> 59.6 µM (inactive)
O=c1c2ccccc2[nH]c(=S)n1CCCN1CCN(c2ccccc2F)CC1,IC50,Vero [5],> 25 µM (active)
Cc1ccc(Oc2ccc(NC(=O)Cn3ccsc3=N)cc2)cc1,CC50,Vero [6],19.1 µM (active)
same,IC50,Vero [5],> 25 µM (active)
same,IC50,[7],13.2 µM (active)
same,CC50,[8],15.7 µM (active)
Cc1ccc(C)c(-c2csc(NC(=O)c3cnccn3)n2)c1,CC50,[9],17.6 µM (active)
same,EC50,[10],10.4 µM (active)
same,IC50,cells [11],3.99 µM (active)
same,EC50,[12],2.04 µM (active)
CN(C)c1nc(-c2ccccc2)[n+](C)s1,IC50,[13],3.76 µM (active)
same,IC50,[14],> 50 µM (inactive)
COc1ccccc1NC(=O)/C(O)=C/C(=O)c1ccccc1,CC50,[9],> 20 µM (active)
same,IC50,cells [11],32 µM (active)
O=C(OCc1ccccc1)c1cccc(-c2nnn(Cc3ccccc3)n2)c1,EC50,Streptokinase A,26 µM (inconclusive)
same,EC50,Streptococcus,> 150 µM (not active)
same,CC50,[15],> 40 µM (active)
same,EC50,[16],> 150 µM (not active)
same,EC50,[17],9.03 µM (active)
O=c1c2ccccc2[nH]c(=S)n1CCCN1CCN(c2ccccc2)CC1,EC50,cells [18],0.169 µM (active)
same,EC50,[10],> 60 µM (not active)
same,IC50,Vero [5],> 25 µM (active)
same,EC50,[12],< 0.1 µM (active)
same,CC50,[8],> 12.5 µM (active)
Cc1ccc(-c2nn[nH]n2)cc1Cl,AC50,[19],9.99 µM (active)
Cn1cnc([N+](=O)[O-])c1Sc1ccc([N+](=O)[O-])cc1,CC50,[9],> 20 µM (active)
same,IC50,[20],> 66 µM (inactive)
same,AC50,[21],8.39 µM (active)
same,CC50,[22],> 40 µM (active)
same,EC50,H4,> 120 µM (not active)
same,EC50,[23],> 120 µM (not active)
same,IC50,[24],> 80 µM (inactive)
same,EC50,[25],> 120 µM (not active)
same,IC50,[26],> 66 µM (inactive)
same,IC50,cells [11],10.8 µM (active)
N#CC1=C(SCc2ccc(C#N)cc2)N=C(N)C(c2nc(-c3ccccc3)cs2)C12CCCCC2 (stereo not given),EC50,HEK293 [3],> 59.6 µM (inactive)
same,EC50,HEK293 [4],> 59.6 µM (inactive)
Cc1cc(C(=O)N/N=C/c2ccc(Cl)c([N+](=O)[O-])c2)c(C)n1-c1ccc(F)cc1,EC50,HEK293 [3],> 59.7 µM (inactive)
same,EC50,HEK293 [4],> 59.7 µM (inactive)
COc1cc(N2C(=O)C=CC2=O)c(OC)cc1Cl,IC50,[27],44 µM (active)
same,IC50,[13],11.6 µM (active)
same,IC50,Large T antigen,54.6 µM (active)
same,AC50,[28],2.72 µM (active)
same,IC50,[14],1.97 µM (active)
same,IC50,Beta-galactosidase,> 66.6 µM (inactive)
Cc1ccc(N(C(=O)Cc2cccs2)C(C(=O)NC2CCCCC2)c2ccccn2)cc1C (stereo not given),EC50,HEK293 [3],> 0.245 µM (active)
same,EC50,HEK293 [4],> 59.6 µM (inactive)
